Reference: patent US20110166066A1, “CATESTATIN (CST) AND ITS VARIANTS FOR TREATMENT OF CARDIOVASCULAR AND METABOLIC DISORDERS” (priority 2008, published 2011)
No end group written: not given here.

System: Langendorff perfused rat heart
Experiment: Isoproterenol stimulated Langendorff heart preparations
Method: Isoproterenol stimulated preparations—Cardiac preparations were stabilized for 20 min with KHs and then perfused with 5 nM ISO for 10 min. ISO was washed-out with KHs. After returning to control conditions, each heart was perfused with KHs containing a single concentration of WT-Cts […] or G364S-Cts (200 nM) with 5 nM ISO for a further 10 min.
To further describe the antagonistic action of either WT-Cts (33 nM), P370L-Cts (110 nM) or G364S-Cts (200 nM) against ISO-dependent stimulation, dose-response curves were generated by perfusing the heart preparations with KHs enriched with increasing concentrations of ISO (0.1 nM to 1 μM) alone. These curves were then compared to those obtained by exposing other cardiac preparations to the same perfusion medium containing increasing concentrations of ISO (0.1 nM to 1 μM) plus a single concentration of either WT-Cts (33 nM) or P370L-Cts (110 nM) or G364S-Cts (200 nM).
Statistics—Data are expressed as the mean±SEM. Curve fitting was accomplished in the program Kaleidagraph (Synergy Software, Reading, Pa.). Peptide EC50 and IC50 values were interpolated as the concentration that achieved 50% stimulation and inhibition, respectively. For analysis of phosphorylated proteins, levels were quantified using Bio-Rad QuantifyOne and volumes of phosphorylated proteins were divided by the levels of non-phosphorylated proteins to calculate fold activation. Stimulation of protein activity was expressed as fold increase over vehicle-treated control. The means and S.E.M. were calculated for each treatment. Multiple comparisons were made using either one-way ANOVA followed by Bonferroni's post-hoc test or two-way ANOVA. Statistical significance was concluded at p<0.05. Statistics were computed with the program InStat (GraphPad Software, Inc., San Diego, Calif.).
To characterize the inhibitory action of either WT-CST (11, 33 or 110 nM), G364S-CST (200 nM) or P370L-CST (110 nM) toward ISO-dependent stimulation of cardiac function, heart preparations were perfused with KHs containing increasing concentrations of ISO (0.1 nM to 1 μM) either alone or in combination with one of the three CST variants.

Sequence: SSMKLSFRARAYGFRGPGPQL [WT-CST, catestatin]
- Type of antagonism against ISO: non-competitive type of antagonism
- Block of ISO-dependent +(LVdP/dT)max (ISO 5 nM): ~90%
- ISO induced coronary dilation (ISO 5 nM): blocked
- ISO-induced positive lusitropism (ISO 5 nM): blocked
- Rank order of potency against ISO (ISO 5 nM): Order of potency: WT-CST > G364S-CST > P370L-CST
- ISO stimulatory effect on LVP (ISO 5 nM, measured at 5 min): abolished
- Coronary pressure (ISO alone or ISO + peptide) (Table 3, ISO 5 nM): Abolished
- Inotropism (ISO alone or ISO + peptide) (Table 3, ISO 5 nM): Abolished
- Lusitropism (ISO alone or ISO + peptide) (Table 3, ISO 5 nM): Abolished
